Measurements reported in ChEMBL document CHEMBL1201862, “PubChem BioAssay data set” (2004).
Counter-ions that a name gives are not always drawn. Active and inactive are the calls of the source.

How the values were obtained:
[1] = target: Arf-GAP with SH3 domain, ANK repeat and PH domain-containing protein 1 (Homo sapiens, UniProt Q9ULH1); assay type: functional;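 further: biochemical fluorescence polarization dose–response screen measuring inhibition of ASAP1; ASAP1 GAP domain stimulating GTP hydrolysis by truncated human ARF1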
[2] = target: Adenosylmethionine-8-amino-7-oxononanoate aminotransferase (Mycobacterium tuberculosis, UniProt P9WQ81); assay: Mycobacterium tuberculosis BioA enzyme inhibitor Measured in Biochemical System Using Plate Reader - 2163-02_Inhibitor_Dose_CherryPick_Activity.; assay type: functional, Mycobacterium tuberculosis UT205
[3] = target: T1, Sentrin-specific protease 1 (Homo sapiens, UniProt Q9P0U3); assay: SENP1 catalytic domain blockers, concentration series – biochemical, kinetic FRET, dose response (AID 651697); assay type: functional; conditions: read-out: IC50_Mean
T1 sequence (Q9P0U3 whole entry): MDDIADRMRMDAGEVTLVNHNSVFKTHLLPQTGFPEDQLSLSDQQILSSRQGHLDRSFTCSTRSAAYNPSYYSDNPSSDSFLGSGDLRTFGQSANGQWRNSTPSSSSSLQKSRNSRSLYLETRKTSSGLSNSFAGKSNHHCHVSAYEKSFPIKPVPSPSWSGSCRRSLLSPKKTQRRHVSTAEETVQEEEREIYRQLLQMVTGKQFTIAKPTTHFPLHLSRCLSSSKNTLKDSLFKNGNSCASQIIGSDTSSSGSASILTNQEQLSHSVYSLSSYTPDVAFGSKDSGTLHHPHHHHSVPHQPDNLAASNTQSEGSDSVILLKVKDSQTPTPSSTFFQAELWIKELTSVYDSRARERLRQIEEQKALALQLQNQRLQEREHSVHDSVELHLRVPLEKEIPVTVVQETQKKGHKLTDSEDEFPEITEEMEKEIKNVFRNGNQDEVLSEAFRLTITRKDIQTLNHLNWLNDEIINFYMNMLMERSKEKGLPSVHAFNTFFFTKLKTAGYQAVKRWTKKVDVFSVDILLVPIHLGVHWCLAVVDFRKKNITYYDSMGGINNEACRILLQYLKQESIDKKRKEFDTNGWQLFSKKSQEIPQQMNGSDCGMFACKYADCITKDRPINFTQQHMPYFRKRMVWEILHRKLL

[4] = target: T2, DNA repair and recombination protein RAD54-like (Homo sapiens, UniProt Q92698); assay: RAD54 Holliday junction migration blockers – biochemical, fluorescence, cherry-picked samples, dose series, confirmation (AID 651657); assay type: functional
T2 sequence (Q92698 whole entry): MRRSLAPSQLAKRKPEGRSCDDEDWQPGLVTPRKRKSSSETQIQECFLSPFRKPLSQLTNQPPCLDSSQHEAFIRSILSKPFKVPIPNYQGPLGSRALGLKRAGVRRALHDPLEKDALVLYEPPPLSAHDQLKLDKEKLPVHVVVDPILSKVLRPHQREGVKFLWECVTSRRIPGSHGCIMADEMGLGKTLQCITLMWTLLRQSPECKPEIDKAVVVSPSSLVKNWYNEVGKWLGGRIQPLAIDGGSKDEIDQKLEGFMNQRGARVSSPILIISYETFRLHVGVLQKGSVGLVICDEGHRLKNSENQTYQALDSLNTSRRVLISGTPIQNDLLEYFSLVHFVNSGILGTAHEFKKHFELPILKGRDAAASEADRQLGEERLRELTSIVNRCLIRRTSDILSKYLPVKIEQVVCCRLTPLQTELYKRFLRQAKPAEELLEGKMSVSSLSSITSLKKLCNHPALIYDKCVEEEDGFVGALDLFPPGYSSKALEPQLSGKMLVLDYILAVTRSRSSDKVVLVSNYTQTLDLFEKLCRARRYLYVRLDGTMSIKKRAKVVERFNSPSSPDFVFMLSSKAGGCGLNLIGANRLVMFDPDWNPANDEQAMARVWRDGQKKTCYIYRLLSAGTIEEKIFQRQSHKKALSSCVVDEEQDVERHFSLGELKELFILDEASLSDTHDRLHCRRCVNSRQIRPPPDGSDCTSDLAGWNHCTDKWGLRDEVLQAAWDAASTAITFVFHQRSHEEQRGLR

[5] = target: T1, Sentrin-specific protease 1; assay: Dose response confirmation of small molecule inhibitors of the catalytic domain of the SUMO protease, SENP1 in a FRET assay.; assay type: functional; conditions: read-out: IC50_Mean
Interleukin-8 = target: T3, Interleukin-8 (Homo sapiens, UniProt P10145); assay: Dose Response confirmation of uHTS small molecule hits for cystic fibrosis induced NFkb Inhibitors in a PAF-induced IL8 counterscreen.; assay type: functional; conditions: read-out: IC50_Mean
T3 sequence (P10145 whole entry): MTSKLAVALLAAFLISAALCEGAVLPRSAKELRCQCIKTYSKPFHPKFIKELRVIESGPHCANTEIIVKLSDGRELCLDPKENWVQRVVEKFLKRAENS

Mu-type opioid receptor = Mu-type opioid receptor (Homo sapiens, UniProt P35372); assay type: functional, cell-based;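 further: U2OS cells with beta-arrestin recruitment to OPRM1 by beta-gal complementation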
[6] = target: 5-hydroxytryptamine receptor 2A (Mus musculus, UniProt P35363); assay type: functional, cell-based;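 further: CHO-K1 cells with tagged receptor and beta-arrestin; agonist potency measured as compound-induced activation of the receptor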
[7] = target: T4, Heat shock factor protein 1 (Mus musculus, UniProt P38532); assay: decrease of HSF1-responsive luciferase luminescence – cell-based, NIH3T3, dose retest, confirmation (AID 2382); assay type: functional;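 further: NIH3T3 fibroblasts with HSF1-driven luciferase reporter stressed by proteasome inhibitor MG132; luminescence from HSF1-driven luciferase expression after 8 hours of MG132 stress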
T4 sequence (P38532 whole entry): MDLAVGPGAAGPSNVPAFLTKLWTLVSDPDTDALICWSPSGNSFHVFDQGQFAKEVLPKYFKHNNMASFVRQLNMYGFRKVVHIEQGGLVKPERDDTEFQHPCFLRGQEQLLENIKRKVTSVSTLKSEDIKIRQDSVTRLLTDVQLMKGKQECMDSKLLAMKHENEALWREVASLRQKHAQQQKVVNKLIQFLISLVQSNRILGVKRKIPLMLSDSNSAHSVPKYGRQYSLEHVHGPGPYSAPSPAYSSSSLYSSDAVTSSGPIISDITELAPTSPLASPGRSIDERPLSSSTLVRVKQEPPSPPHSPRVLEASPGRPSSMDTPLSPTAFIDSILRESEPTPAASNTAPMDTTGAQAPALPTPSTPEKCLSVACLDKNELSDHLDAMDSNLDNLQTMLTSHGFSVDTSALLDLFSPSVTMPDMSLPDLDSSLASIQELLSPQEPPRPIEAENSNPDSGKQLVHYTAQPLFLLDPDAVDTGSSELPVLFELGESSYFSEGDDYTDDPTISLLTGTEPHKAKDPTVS

Fatty acid synthase [8] = target: T5, Fatty acid synthase (Homo sapiens, UniProt P49327); assay: inhibition of human FAS-TE enzyme activity – biochemical, endpoint fluorescence intensity, uHTS hits, dose response (AID 624327); assay type: functional;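 further: fluorescence from hydrolysis of an O-methyl fluorescein acyl ester substrate by the enzyme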
Fatty acid synthase [9] = target: T5, Fatty acid synthase; assay: inhibition of human FAS-TE enzyme activity – biochemical, kinetic fluorescence intensity, dose response (AID 624326); assay type: functional;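 further: rate of fluorescence rise from hydrolysis of a fluorogenic O-methyl fluorescein ester substrate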
[10] = Fluorescence-based cell-based high throughput dose response assay for inhibitors of the interaction of nucleotide-binding oligomerization domain containing 2 (NOD2) and the receptor-interacting serine-threonine kinase 2 (RIPK2).; assay type: functional; conditions: Homo sapiens
[11] = Luminescence Cell-Based Dose Retest to Confirm Inhibitors of Cancer Stem Cells. [Related pubchem assays (depositor defined):AID2717, AID2721]; assay type: functional; conditions: Homo sapiens
Streptococcus = assay: GAS UMAA2166 growth inhibition – luminescence, BacTiterGlo, counter-screen for streptokinase expression inhibitor project, dose response (AID 1915); assay type: functional, organism-based;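 further: potency for reduction of bacterial viability or growth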
HEK293 [12] = assay: optical interference in Abeta FP readout, dose response, artefact control for IDE activator project, biochemical, fluorescence polarization (AID 588442); assay type: functional, cell-based; conditions: Homo sapiens
Insulin-degrading enzyme [13] = target: T6, Insulin-degrading enzyme (Homo sapiens, UniProt P14735); assay: recombinant IDE activation, cell-free – biochemical, fluorescence polarization, counter-screen for IDE activator project, dose response (AID 588681)
T6 sequence (P14735 whole entry): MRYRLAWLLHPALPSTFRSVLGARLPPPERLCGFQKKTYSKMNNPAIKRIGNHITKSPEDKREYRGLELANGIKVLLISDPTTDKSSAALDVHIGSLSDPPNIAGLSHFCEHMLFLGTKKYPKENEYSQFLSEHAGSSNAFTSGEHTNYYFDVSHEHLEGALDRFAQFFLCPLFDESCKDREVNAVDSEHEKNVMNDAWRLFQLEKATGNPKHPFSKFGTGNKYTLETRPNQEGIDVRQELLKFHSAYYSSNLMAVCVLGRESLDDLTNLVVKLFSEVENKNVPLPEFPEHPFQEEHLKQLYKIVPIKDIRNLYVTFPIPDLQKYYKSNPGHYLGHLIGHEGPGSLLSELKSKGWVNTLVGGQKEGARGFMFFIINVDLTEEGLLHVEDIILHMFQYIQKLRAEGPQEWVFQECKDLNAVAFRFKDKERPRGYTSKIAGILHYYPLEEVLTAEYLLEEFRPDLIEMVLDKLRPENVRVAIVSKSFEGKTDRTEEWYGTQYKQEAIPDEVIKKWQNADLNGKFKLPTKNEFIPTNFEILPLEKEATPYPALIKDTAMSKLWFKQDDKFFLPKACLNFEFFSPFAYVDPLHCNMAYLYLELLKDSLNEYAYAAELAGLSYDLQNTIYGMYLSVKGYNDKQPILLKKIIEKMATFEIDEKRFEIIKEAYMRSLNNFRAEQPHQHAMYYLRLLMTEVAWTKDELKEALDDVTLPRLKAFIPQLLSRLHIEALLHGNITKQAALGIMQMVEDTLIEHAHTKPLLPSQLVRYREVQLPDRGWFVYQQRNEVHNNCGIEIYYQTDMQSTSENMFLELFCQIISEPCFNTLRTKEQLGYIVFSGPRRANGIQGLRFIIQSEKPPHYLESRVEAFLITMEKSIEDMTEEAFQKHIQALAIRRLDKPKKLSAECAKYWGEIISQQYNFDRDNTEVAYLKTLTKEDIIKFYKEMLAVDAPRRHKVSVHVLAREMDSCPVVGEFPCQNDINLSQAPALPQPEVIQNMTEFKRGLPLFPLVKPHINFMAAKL

HEK293 [14] = assay: membrane integrity loss in HEK cells – cell-based, fluorescence, cytotoxicity control for IDE activator project, dose response (AID 588440); assay type: functional; conditions: Homo sapiens;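 further: cytotoxicity by LDH release measuring loss of membrane integrity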
Insulin-degrading enzyme [15] = target: T6, Insulin-degrading enzyme; assay: cellular IDE activation of Abeta substrate cleavage – fluorescence polarization, HEK cells, dose response (AID 588439); assay type: functional, cell-based
Streptokinase A = target: T7, Streptokinase A (Streptococcus pyogenes serotype M1, UniProt P10520); assay: viability-normalized secreted streptokinase activity reduction – plasminogen activation absorbance, OD405, dose response (AID 1914); assay type: functional, Streptococcus pyogenes M1 GAS;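 further: secreted streptokinase activity via plasminogen activation per viability signal from cell pellet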
T7 sequence (P10520 whole entry): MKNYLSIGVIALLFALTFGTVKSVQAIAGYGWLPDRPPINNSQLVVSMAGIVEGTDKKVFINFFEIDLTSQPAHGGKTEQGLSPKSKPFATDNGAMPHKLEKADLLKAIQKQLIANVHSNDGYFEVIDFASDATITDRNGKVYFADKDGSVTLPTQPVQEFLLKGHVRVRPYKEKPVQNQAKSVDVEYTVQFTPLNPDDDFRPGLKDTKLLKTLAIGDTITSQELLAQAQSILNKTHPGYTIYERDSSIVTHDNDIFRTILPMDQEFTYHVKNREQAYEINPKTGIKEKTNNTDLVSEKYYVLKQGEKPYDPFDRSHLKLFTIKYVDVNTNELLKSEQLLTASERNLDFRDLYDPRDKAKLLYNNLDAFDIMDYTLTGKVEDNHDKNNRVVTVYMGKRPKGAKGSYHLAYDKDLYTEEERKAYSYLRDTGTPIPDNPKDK

[16] = system: Streptococcus sp. 'group A'; assay: Streptococcus pyogenes SK(-)GAS viability under kanamycin – luminescence, BacTiterGlo, confirmation, counter-screen for streptokinase expression inhibitor project, dose response (AID 1900); assay type: functional, organism-based
Galanin receptor type 3 = Galanin receptor type 3 (Homo sapiens, UniProt O60755); assay: Fluorescence-based cell-based primary high throughput dose response assay to identify antagonists of the Galanin Receptor 3 (GalR3).; assay type: functional
cells = assay type: functional, cell-based; conditions: HEK-CNG

Sequence of 5-hydroxytryptamine receptor 2A (P35363 whole entry): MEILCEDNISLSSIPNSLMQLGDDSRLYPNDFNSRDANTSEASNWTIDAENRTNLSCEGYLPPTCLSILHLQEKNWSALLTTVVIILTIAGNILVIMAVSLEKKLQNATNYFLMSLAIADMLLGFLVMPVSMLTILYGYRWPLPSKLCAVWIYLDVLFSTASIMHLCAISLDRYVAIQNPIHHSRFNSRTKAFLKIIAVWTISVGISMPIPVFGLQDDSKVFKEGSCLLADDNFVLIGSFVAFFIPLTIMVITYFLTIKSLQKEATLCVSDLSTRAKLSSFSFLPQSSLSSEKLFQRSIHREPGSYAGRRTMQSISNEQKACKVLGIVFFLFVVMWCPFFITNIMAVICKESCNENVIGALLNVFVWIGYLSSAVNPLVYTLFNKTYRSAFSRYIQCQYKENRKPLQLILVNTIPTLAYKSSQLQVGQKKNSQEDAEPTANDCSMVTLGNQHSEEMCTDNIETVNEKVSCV
Sequence of Adenosylmethionine-8-amino-7-oxononanoate aminotransferase (P9WQ81 whole entry, the tested form may be a part): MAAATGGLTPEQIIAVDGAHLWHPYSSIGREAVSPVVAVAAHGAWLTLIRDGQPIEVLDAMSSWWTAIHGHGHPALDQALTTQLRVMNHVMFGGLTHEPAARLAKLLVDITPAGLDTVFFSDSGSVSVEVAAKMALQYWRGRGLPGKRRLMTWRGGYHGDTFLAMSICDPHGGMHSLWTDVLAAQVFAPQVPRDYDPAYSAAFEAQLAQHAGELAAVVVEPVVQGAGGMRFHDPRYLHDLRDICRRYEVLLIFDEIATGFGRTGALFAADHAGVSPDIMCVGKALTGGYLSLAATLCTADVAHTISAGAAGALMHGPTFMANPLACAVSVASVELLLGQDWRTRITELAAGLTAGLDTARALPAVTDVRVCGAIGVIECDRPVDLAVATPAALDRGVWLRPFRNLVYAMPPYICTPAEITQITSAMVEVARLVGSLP
T5 sequence (P49327 whole entry): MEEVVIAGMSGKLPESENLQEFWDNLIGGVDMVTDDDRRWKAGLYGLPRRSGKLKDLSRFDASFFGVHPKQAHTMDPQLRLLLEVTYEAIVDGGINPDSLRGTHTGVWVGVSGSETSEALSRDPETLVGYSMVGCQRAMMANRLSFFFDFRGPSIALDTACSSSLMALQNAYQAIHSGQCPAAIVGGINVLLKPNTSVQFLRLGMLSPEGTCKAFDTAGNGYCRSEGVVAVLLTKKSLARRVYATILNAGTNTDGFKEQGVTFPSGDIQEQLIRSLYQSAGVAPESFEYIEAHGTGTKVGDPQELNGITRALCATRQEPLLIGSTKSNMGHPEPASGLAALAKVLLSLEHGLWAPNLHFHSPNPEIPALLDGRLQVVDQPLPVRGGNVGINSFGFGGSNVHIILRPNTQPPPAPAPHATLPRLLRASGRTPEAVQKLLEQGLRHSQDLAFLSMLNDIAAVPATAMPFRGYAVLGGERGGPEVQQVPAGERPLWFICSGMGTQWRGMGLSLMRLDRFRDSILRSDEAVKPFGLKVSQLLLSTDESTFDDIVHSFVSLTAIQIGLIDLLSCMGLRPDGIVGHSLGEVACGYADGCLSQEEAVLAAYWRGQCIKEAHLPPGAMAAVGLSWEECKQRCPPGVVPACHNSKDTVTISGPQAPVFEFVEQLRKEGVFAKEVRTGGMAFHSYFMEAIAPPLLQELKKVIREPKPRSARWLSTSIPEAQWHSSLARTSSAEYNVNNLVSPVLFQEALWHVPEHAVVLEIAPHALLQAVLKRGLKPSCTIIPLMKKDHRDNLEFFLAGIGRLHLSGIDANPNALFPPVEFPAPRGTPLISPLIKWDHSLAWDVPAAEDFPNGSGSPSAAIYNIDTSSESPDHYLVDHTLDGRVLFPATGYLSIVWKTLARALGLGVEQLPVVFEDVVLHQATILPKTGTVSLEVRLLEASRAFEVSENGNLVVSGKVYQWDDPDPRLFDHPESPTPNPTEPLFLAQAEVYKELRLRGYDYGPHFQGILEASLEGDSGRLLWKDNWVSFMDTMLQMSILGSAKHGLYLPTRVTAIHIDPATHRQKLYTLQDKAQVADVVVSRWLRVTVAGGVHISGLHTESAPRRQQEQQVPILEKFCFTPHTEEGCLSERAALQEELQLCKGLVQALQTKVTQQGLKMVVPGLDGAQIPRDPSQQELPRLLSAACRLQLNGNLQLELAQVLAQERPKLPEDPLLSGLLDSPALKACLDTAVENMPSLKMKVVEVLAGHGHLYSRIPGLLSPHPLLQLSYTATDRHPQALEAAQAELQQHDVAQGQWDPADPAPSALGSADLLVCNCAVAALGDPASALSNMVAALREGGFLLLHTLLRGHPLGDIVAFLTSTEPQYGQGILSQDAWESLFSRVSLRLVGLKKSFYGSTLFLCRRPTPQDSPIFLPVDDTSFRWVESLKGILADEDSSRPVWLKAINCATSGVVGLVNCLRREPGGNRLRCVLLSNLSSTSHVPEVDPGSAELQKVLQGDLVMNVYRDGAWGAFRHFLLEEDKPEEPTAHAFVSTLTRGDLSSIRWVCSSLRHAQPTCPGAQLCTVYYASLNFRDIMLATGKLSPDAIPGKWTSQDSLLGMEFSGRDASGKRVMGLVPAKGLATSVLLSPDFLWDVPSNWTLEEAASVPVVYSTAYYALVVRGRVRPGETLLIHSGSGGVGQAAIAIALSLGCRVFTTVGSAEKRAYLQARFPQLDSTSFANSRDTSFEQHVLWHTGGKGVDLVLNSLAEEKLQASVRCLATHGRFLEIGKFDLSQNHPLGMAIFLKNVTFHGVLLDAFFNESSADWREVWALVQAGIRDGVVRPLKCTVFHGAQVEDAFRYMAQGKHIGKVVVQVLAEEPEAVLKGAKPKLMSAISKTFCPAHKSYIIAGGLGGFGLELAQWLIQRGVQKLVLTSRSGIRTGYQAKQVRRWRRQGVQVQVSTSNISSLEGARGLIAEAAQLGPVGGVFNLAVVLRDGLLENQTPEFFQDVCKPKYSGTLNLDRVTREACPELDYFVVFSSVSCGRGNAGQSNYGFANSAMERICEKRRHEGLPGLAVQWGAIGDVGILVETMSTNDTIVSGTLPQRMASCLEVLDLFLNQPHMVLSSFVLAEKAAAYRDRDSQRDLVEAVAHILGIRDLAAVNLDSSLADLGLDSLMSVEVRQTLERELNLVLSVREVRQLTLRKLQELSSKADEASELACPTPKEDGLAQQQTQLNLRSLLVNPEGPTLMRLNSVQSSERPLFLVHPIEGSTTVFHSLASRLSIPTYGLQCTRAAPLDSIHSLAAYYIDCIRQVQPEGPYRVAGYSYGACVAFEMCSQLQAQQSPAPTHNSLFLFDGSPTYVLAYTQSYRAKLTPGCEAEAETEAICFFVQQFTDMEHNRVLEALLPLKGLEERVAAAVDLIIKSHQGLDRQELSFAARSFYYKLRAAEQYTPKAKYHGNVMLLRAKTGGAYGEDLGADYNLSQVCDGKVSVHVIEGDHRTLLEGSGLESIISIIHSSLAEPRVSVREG
Sequence of Mu-type opioid receptor (P35372 whole entry): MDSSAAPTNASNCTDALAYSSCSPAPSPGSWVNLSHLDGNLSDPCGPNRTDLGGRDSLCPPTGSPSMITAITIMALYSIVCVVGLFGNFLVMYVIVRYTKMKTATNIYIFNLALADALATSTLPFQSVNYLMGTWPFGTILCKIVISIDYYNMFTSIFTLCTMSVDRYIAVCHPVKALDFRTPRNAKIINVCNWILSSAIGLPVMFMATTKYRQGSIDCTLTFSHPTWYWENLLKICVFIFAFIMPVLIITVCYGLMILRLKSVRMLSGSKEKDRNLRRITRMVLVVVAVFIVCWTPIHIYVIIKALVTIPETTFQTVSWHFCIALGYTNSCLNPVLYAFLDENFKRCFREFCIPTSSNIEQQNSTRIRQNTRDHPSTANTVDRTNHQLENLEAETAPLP
Sequence of Arf-GAP with SH3 domain, ANK repeat and PH domain-containing protein 1 (Q9ULH1 whole entry, the tested form may be a part): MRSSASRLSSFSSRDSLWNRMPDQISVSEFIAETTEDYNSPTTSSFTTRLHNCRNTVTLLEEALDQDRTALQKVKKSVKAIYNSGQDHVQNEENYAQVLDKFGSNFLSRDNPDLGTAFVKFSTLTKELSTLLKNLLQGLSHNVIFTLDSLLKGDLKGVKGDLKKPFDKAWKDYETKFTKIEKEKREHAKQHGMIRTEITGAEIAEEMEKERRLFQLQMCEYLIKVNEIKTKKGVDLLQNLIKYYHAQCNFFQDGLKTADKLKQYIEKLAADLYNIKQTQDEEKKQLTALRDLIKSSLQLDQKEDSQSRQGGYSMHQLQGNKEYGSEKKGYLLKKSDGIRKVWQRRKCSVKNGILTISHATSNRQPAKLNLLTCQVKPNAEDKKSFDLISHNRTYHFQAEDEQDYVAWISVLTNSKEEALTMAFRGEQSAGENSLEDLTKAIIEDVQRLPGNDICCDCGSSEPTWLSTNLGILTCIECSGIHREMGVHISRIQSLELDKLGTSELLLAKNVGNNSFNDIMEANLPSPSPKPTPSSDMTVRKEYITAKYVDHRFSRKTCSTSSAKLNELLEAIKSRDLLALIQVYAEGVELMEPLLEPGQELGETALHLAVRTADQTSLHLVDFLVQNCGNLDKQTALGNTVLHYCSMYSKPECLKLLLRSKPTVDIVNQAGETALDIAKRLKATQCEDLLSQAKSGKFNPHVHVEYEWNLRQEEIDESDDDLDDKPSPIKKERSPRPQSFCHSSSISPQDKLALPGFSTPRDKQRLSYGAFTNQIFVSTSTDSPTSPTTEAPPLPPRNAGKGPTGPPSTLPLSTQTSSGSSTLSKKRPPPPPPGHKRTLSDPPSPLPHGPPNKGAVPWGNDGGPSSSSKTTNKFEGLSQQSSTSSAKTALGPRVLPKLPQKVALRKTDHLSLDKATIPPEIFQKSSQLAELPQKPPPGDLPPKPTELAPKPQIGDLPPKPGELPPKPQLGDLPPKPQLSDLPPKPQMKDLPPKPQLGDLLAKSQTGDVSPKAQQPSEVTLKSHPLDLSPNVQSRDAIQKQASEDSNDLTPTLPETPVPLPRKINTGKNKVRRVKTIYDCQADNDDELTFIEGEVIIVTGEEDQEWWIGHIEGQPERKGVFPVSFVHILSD

Structure (SMILES): O=C(CSc1ccccc1)Nc1ccc(-c2nc3ccccc3[nH]2)cc1
- IC50 [1]: 14.7 µM (inactive)

Structure (SMILES): Cc1nc2nc(SCC(=O)N3CCOCC3)nn2c(C)c1Cc1ccccc1
- AC50 [2]: 0.43 µM (active)

Structure (SMILES): COc1cccc2c1-c1c(O)cccc1C2=O
- IC50 [3]: 37.7 µM (inactive)
- AC50 [4]: 66.7 µM (active)
- IC50 [5]: 18.6 µM (active)

Structure (SMILES): Cc1c(-c2ccccc2)oc2c(C(=O)N3CCN(c4ccc([N+](=O)[O-])cc4)CC3)cccc2c1=O
- IC50 (Interleukin-8): 40.2 µM (inactive)

Structure (SMILES): CN1CCN(C2=Nc3c(Cl)cc(Cl)c4cccc2c34)CC1
- IC50 [3]: 6.95 µM (active)
- IC50 [5]: 10.2 µM (active)

Structure (SMILES): CN1CCc2c(sc(/N=C/c3cc(C(C)(C)C)ccc3O)c2C#N)C1
- EC50 (Mu-type opioid receptor): 92.6 µM (inactive)
- EC50 [6]: 12.9 µM (inactive)
- EC50 [7]: > 195 µM (not active)

Structure (SMILES): C/C=C/c1ccc2c(c1)O[C@@H](CN(C)C(=O)Nc1ccc(OC)cc1)[C@@H](C)CN([C@@H](C)CO)S2(=O)=O
- AC50 [2]: 2.08 µM (active)

Structure (SMILES): CCOC(=O)[C@]12Cc3cc(OC)ccc3[C@H]1N(C1CCCCC1)C(=O)c1ccccc12
- IC50 (Fatty acid synthase [8]): 8.86 µM (active)
- IC50 (Fatty acid synthase [9]): 6.5 µM (active)
- IC50 [10]: 2.5 µM (active)

Structure (SMILES): O=C(N/N=C/c1cccnc1)c1cc2c(ccc3ccccc32)o1
- IC50 [1]: 19.9 µM (inactive)

Structure (SMILES): CC(C)=CCCC1(C)C=Cc2c(c(C)cc3c2[nH]c2cc(O)ccc23)O1 (stereo not drawn)
- AC50 [11]: 5.38 µM (active)
- EC50 (Streptococcus): 5.07 µM (active)
- EC50 (HEK293 [12]): > 55.9 µM (inactive)
- EC50 (Insulin-degrading enzyme [13]): > 54.7 µM (inactive)
- IC50 (HEK293 [14]): 15.3 µM (inactive)
- EC50 (Insulin-degrading enzyme [15]): 41 µM (inactive)
- EC50 (Streptokinase A): > 150 µM (not active)
- EC50 [16]: 2.61 µM (active)

Structure (SMILES): COc1c2c(cc3c1OCO3)CCN(C)C2 [HYDROCOTARNINE HYDROBROMIDE]
- EC50 (Mu-type opioid receptor): 92.4 µM (inactive)
- EC50 [6]: 76 µM (inactive)

Structure (SMILES): OCc1cc(C(O)CNCCCCCCOCCCCc2ccccc2)ccc1O (stereo not drawn) [SALMETEROL XINAFOATE]
- IC50 (Galanin receptor type 3): > 29.9 µM (inactive)
- EC50 (cells): > 29.9 µM (inactive)
